Here are results for 17 compounds from patent US9604940B2 (Chroma Therapeutics Ltd., priority 2012, dated 2017).

Assay [1] relates to MCP-1. Description: MCSF-stimulation of human whole blood, MCP-1 levels by sandwich ELISA. In kind it is cell-based. The following applies: inhibitor 2 hours before MCSF 50 ng/ml, 22 hrs, MCP-1 in cell-free supernatants, read-out: Inhibitor activity versus MCP-1. Here is the method:
Macrophage Colony-Stimulating Factor (MCSF)-Stimulation of Human Whole Blood
Whole blood was taken by venous puncture using heparinised vacutainers (Becton Dickinson) and diluted in an equal volume of RPMI1640 tissue culture media (Sigma). 100 μl was plated in V-bottomed 96 well tissue culture treated plates. 2 hours after the addition of the inhibitor in 100 μl of RPMI1640 media, the blood was stimulated with MCSF (Peprotech: #300-25-10 uG) at a final concentration of 50 ng/ml and incubated at 37° C. in 5% CO2 for 22 hrs. MCP-1 levels were measured from cell-free supernatants by sandwich ELISA developed from MCP-1/CCL2 Duoset (R&D Systems #DY279). Additional reagents required for ELISA were purchased from Sigma, (BSA: A3059, 10×PBS: D1408, Tween20: P5927) R&D Systems, (colour reagent: #DY999 and stop solution: #DY994) and Costar (96-well EIA plates: #2592). Assays were carried out following the manufacturer's instructions with the following modifications: Cell-free supernatants were diluted 30:70 in reagent diluent before assay. All incubations except capture antibody were carried out with shaking at 550 rpm. 3 washes were carried out between steps, and incubation times were blocking 1.5 hr, sample/standard and detection antibody incubations 2 hr, HRP incubation 30 min, colour development 20 min. • IC50 values were allocated to one of five ranges as follows: • Range A: IC50<100 nM • Range B: 100 nM<IC50<300 nM • Range C: 300 nM<1050<1000 nM • Range D: 1000 nM<IC50<5000 nM • Range E: IC50>5000 nM • NT=not tested

The target in assay [2] is T1, CSF1R (FMS) (Homo sapiens, UniProt P07333).
T1 construct: purchased Invitrogen (Paisley, UK)
T1 sequence (P07333 20-972): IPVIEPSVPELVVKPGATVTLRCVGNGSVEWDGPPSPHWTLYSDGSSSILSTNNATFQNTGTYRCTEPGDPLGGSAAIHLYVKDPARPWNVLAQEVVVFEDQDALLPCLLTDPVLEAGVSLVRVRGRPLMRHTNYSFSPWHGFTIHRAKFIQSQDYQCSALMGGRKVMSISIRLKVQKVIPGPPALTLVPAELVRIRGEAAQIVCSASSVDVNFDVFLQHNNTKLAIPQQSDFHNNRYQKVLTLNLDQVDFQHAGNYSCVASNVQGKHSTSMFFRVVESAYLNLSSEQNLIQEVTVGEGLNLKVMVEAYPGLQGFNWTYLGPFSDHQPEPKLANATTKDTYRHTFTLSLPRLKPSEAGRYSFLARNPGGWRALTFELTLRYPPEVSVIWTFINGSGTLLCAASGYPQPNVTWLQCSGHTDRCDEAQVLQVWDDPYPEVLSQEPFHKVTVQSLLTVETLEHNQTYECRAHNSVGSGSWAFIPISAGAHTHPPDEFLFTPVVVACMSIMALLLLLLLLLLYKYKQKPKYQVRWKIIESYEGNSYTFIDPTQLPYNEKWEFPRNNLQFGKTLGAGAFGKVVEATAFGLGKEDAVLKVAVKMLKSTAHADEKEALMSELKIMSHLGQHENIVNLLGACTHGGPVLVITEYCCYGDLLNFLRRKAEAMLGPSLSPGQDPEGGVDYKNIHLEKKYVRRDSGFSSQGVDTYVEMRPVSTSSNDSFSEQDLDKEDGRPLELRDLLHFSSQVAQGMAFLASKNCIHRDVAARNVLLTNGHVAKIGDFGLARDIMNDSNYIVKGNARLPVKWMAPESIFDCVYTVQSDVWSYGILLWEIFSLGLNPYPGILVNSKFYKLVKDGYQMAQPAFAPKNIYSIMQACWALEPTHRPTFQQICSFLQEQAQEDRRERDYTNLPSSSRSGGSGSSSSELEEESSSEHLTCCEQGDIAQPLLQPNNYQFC
Kind of assay: CSF1R (FMS) kinase activity, Z'-LYTE biochemical assay (Invitrogen). The following applies: ATP at or close to Km, 60 minute reaction at room temperature, read-out: Inhibitor activity versus CSF-1. How it is done:
CSF1R (FMS) Kinase Activity
The ability of compounds to inhibit CSF1R (FMS) kinase activity was measured in an assay performed by Invitrogen (Paisley, UK). The Z′-LYTE™ biochemical assay employs a fluorescence-based, coupled-enzyme format and is based on the differential sensitivity of phosphorylated and non-phosphorylated peptides to proteolytic cleavage. The peptide substrate is labelled with two fluorophores—one at each end—that make up a FRET pair. In the primary reaction, the kinase transfers the gamma-phosphate of ATP to a single […] residue in a synthetic FRET-peptide. In the secondary reaction, a site-specific protease recognizes and cleaves non-phosphorylated FRET-peptides. Phosphorylation of FRET-peptides suppresses cleavage by the Development Reagent. Cleavage disrupts FRET between the donor (i.e. coumarin) and acceptor (i.e. fluorescein) fluorophores on the FRET-peptide, whereas uncleaved, phosphorylated FRET-peptides maintain FRET. A […] method, which calculates the ratio (the Emission Ratio) of donor emission to acceptor emission after excitation of the donor fluorophore at 400 nm, is used to quantitate reaction progress.
The final 10 μL Kinase Reaction consists of 0.12-12.3 ng CSF1R (FMS), 2 μM Tyr 01 Peptide and ATP in 50 mM HEPES pH 7.5, 0.01% BRIJ-35, 10 mM MgCl2, 1 mM EGTA. The assay is performed at an ATP concentration at, or close to, the Km. After the 60 minute Kinase Reaction incubation at room temperature, 5 μL of a 1:256 dilution of Development Reagent is added. The assay plate is incubated for a further 60 minutes at room temperature and read on a fluorescence plate reader.
Duplicate data points are generated from a ⅓ log dilution series of a stock solution of test compound in DMSO. Nine dilutions steps are made from a top concentration of 10 mM, and a ‘no compound’ blank is included. Data is collected and analysed using XLfit software from IDBS. The dose response curve is curve fitted to model number 205 (sigmoidal dose-response model). From the curve generated, the concentration giving 50% inhibition is determined and reported.

Structures are written as SMILES.

With `CC(C)C[C@H](NCc1cccc(-c2cnc(N)c(NCc3c(Cl)cccc3Cl)n2)c1)C(=O)OC1CCCC1` [Example 38, Cyclopentyl N-(3-{5-amino-6-[(2,6-dichlorobenzyl)amino]pyrazin-2-yl}benzyl)-L-leucinate], the IC50 in assay [1] and in assay [2] was more than 5000 nM each time.

For `CC(C)C[C@H](NCc1cccc(-c2cnc(N)c(NCc3c(Cl)cccc3Cl)n2)c1)C(=O)OC(C)(C)C` [Example 39, tert-Butyl N-(3-{5-amino-6-[(2,6-dichlorobenzyl)amino]pyrazin-2-yl}benzyl)-L-leucinate], the IC50 in assay [1] and in assay [2] was more than 5000 nM each time.

For `CC(C)(NCc1cccc(-c2cnc(N)c(NCc3c(Cl)cccc3Cl)n2)c1)C(=O)OC1CCCC1` [Example 40, Cyclopentyl N-(3-{5-amino-6-[(2,6-dichlorobenzyl)amino]pyrazin-2-yl}benzyl)-2-methylalaninate], the IC50 in assay [1] is 1000 to 5000 nM; in assay [2], more than 5000 nM.

Regarding `Nc1ncc(-c2cccc(CNC3(C(=O)OC4CCCC4)CCC3)c2)nc1NCc1c(Cl)cccc1Cl` [Example 42, Cyclopentyl 1-[(3-{5-amino-6-[(2,6-dichlorobenzyl)amino]pyrazin-2-yl}benzyl)amino]cyclobutanecarboxylate di-formate], the values for the IC50 in assay [1] and in assay [2] were 300 to 1000 nM and more than 5000 nM, respectively.

`CC(C)(C)OC[C@H](NCc1cccc(-c2cnc(N)c(NCc3c(Cl)cccc3Cl)n2)c1)C(=O)OC1CCCC1` [Example 43, Cyclopentyl N-(3-{5-amino-6-[(2,6-dichlorobenzyl)amino]pyrazin-2-yl}benzyl)-O-tert-butyl-L-serinate]: the IC50 in assay [1] and in assay [2] was more than 5000 nM each time.

Turning to `CC(C)(C)OC[C@H](NCc1cccc(-c2cnc(N)c(NCc3c(Cl)cccc3Cl)n2)c1)C(=O)OC(C)(C)C` [Example 44, tert-Butyl N-(3-{5-amino-6-[(2,6-dichlorobenzyl)amino]pyrazin-2-yl}benzyl)-O-tert-butyl-L-serinate], the IC50 in assay [1] and in assay [2] was more than 5000 nM in each case.

As to `C[C@H](NCc1cccc(-c2cnc(N)c(NCc3c(Cl)cccc3Cl)n2)c1)C(=O)OC(C)(C)C` [Example 45, tert-Butyl N-(3-{5-amino-6-[(2,6-dichlorobenzyl)amino]pyrazin-2-yl}benzyl)-L-alaninate], the IC50 in assay [1] and in assay [2] was 1000 to 5000 nM each time.

Consider `CC(C)(C)OC(=O)[C@H]1CC(NCc2cccc(-c3cnc(N)c(NCc4c(Cl)cccc4Cl)n3)c2)CCN1` (stereo partly drawn) [Example 46, tert-Butyl (2R)-4-[(3-{5-amino-6-[(2,6-dichlorobenzyl)amino]pyrazin-2-yl}benzyl)amino]piperidine-2-carboxylate], for which the IC50 is 300 to 1000 nM in assay [1] and less than 100 nM in assay [2].

On to `CC(C)(C)OC(=O)[C@@H]1CC(NCc2cccc(-c3cnc(N)c(NCc4c(Cl)cccc4Cl)n3)c2)CCN1` (stereo partly drawn) [Example 47, tert-Butyl (2S)-4-[(3-{5-amino-6-[(2,6-dichlorobenzyl)amino]pyrazin-2-yl}benzyl)amino]piperidine-2-carboxylate di-formate], for which the IC50 in assay [1] is 300 to 1000 nM; in assay [2], less than 100 nM.

As for `CC(C)(NCCc1cccc(-c2cnc(N)c(NCc3c(Cl)cccc3Cl)n2)c1)C(=O)OC1CCCC1` [Example 48, Cyclopentyl N-[2-(3-{5-amino-6-[(2,6-dichlorobenzyl)amino]pyrazin-2-yl}phenyl)ethyl]-2-methylalaninate], the results for the IC50 in assay [1] and in assay [2] were 300 to 1000 nM and 1000 to 5000 nM, respectively.

As to `Nc1ncc(-c2cccc(CCNC3(C(=O)OC4CCCC4)CCC3)c2)nc1NCc1c(Cl)cccc1Cl` [Example 49, Cyclopentyl 1-{[2-(3-{5-amino-6-[(2,6-dichlorobenzyl)amino]pyrazin-2-yl}phenyl)ethyl]amino}cyclobutanecarboxylate], the IC50 in assay [1] and in assay [2] was 1000 to 5000 nM throughout.

Take `Nc1ncc(-c2cccc(CCNC3CCN[C@@H](C(=O)OC4CCCC4)C3)c2)nc1NCc1c(Cl)cccc1Cl` (stereo partly drawn) [Example 50, Cyclopentyl (2R)-4-{[2-(3-{5-amino-6-[(2,6-dichlorobenzyl)amino]pyrazin-2-yl}phenyl)ethyl]amino}piperidine-2-carboxylate]: the IC50 in assay [1] was 100 to 300 nM; in assay [2] it was less than 100 nM.

With `Nc1ncc(-c2cccc(CCNC3CCN[C@H](C(=O)OC4CCCC4)C3)c2)nc1NCc1c(Cl)cccc1Cl` (stereo partly drawn) [Example 51, Cyclopentyl (2S)-4-{[2-(3-{5-amino-6-[(2,6-dichlorobenzyl)amino]pyrazin-2-yl}phenyl)ethyl]amino}piperidine-2-carboxylate], the IC50 is 100 to 300 nM in assay [1] and less than 100 nM in assay [2].

For `Nc1ncc(-c2cnn(CCNC3CCN[C@@H](C(=O)OC4CCCC4)C3)c2)nc1NCc1c(Cl)cccc1Cl` (stereo partly drawn) [Example 55, Cyclopentyl (2R)-4-{[2-(4-{5-amino-6-[(2,6-dichlorobenzyl)amino]pyrazin-2-yl}-1H-pyrazol-1-yl)ethyl]amino}piperidine-2-carboxylate di-formate], the IC50 in assay [1] and in assay [2] was 100 to 300 nM each time.

`Nc1ncc(-c2cnn(CCNC3CCN[C@H](C(=O)OC4CCCC4)C3)c2)nc1NCc1c(Cl)cccc1Cl` (stereo partly drawn) [Example 56, Cyclopentyl (2S)-4-{[2-(4-{5-amino-6-[(2,6-dichlorobenzyl)amino]pyrazin-2-yl}-1H-pyrazol-1-yl)ethyl]amino}piperidine-2-carboxylate di-formate]: the IC50 lay in the range of 300 to 1000 nM in assay [1] and 100 to 300 nM in assay [2].

As for `CC(C)C[C@H](NCCn1cc(-c2cnc(N)c(NCc3c(Cl)cccc3Cl)n2)cn1)C(=O)OC1CCCC1` [Example 57, Cyclopentyl N-[2-(4-{5-amino-6-[(2,6-dichlorobenzyl)amino]pyrazin-2-yl}-1H-pyrazol-1-yl)ethyl]-L-leucinate], the IC50 in assay [1] and in assay [2] was 1000 to 5000 nM throughout.

For the compound `CC(C)C[C@H](NCCn1cc(-c2cnc(N)c(NCc3c(Cl)cccc3Cl)n2)cn1)C(=O)OC(C)(C)C` [Example 58, tert-Butyl N-[2-(4-{5-amino-6-[(2,6-dichlorobenzyl)amino]pyrazin-2-yl}-1H-pyrazol-1-yl)ethyl]-L-leucinate], the IC50 in assay [1] and in assay [2] was more than 5000 nM throughout.
